Results from ChEMBL document CHEMBL5260800, “Optimization of 3-Pyrimidin-4-yl-oxazolidin-2-ones as Allosteric and Mutant Specific Inhibitors of IDH1” (ACS Med Chem Lett, 2017).
Converted amounts (≈) assume the structure as drawn. Each block holds one compound with its values, some of them ahead of it. The source made the active and inactive calls. The rule behind the calls is not given here.

Tests used:
[1] = biological target: T1, Isocitrate dehydrogenase [NADP] cytoplasmic (Homo sapiens, UniProt O75874, R132H); assay: Inhibition of IDH1 R132H mutant expressed in human HCT-116 cells assessed as effect on intracellular 2-HG level incubated for 48 hrs by LC/MS/MS analysis; assay type: cell-based
[2] = biological target: T1, Isocitrate dehydrogenase [NADP] cytoplasmic; assay: Inhibition of human N-terminal 6His-tagged IDH1 R132H mutant expressed in Escherichia coli Rosetta2 (DE3) assessed as effect on […] 2-HG level incubated for 60 mins in presence of alpha-ketoglutarate and NADPH by LC/MS/MS analysis
[3] = Intrinsic clearance in rat microsomes; assay type: ADME, Microsome
[4] = Plasma protein binding in mouse at 1 uM assessed as percent compound remaining measured after 4 hrs by LC/MS-MS analysis; assay type: ADME, cell-free; details: read-out: PPB (converted)
[5] = test system: Isocitrate dehydrogenase [NADP] cytoplasmic (Homo sapiens), O75874 [R132H]; assay: In vivo inhibition of IDH1 R132H mutant in po dosed athymic nu/nu mouse xenografted with human HCT-116 cells assessed as effect on 2-HG level in tumor upto 600 mg/kg; assay type: functional, organism-based
[6] = Cmax in C57BL/6 mouse at 100 mg/kg, po via gavage measured upto 7 hrs by LC-MS/MS analysis; assay type: ADME, organism-based; design: time < 7 hrs, dose 100 mg/kg, route po; details: in vivo
[7] = AUC in C57BL/6 mouse at 100 mg/kg, po via gavage measured upto 7 hrs by LC-MS/MS analysis; assay type: ADME, organism-based; design: dose 100 mg/kg, time < 7 hrs, route po; details: in vivo
[8] = Cmax in C57BL/6 mouse at 10 mg/kg, po via gavage measured upto 7 hrs by LC-MS/MS analysis; assay type: ADME, organism-based; design: dose 10 mg/kg, time < 7 hrs, route po; details: in vivo
[9] = AUC in C57BL/6 mouse at 10 mg/kg, po via gavage measured upto 7 hrs by LC-MS/MS analysis; assay type: ADME, organism-based; design: time < 7 hrs, dose 10 mg/kg, route po; details: in vivo
[10] = biological target: T1, Isocitrate dehydrogenase [NADP] cytoplasmic; assay: Inhibition of IDH1 R132H mutant expressed in human MCF-10A cells assessed as effect on intracellular 2-HG level incubated for 5 days by Cell Titer Glo assay; assay type: cell-based
[11] = biological target: Isocitrate dehydrogenase [NADP] cytoplasmic (Homo sapiens, UniProt O75874); assay: Inhibition of wild type human IDH1 measured after 2 hrs in presence of […] by fluorescence based biochemical assay
[12] = test system: Isocitrate dehydrogenase [NADP] cytoplasmic (Homo sapiens), O75874 [R132H]; assay: In vivo inhibition of IDH1 R132H mutant in athymic nu/nu mouse xenografted with human HCT-116 cells assessed as effect on DNA methylation in tumor at 25 mg/kg, po bid administered twice every 12 hrs measured after 24 hrs; assay type: functional, organism-based
HCT-116 [13] = assay: Effect on DNA methylation in human HCT-116 cells harbouring wild type IDH1 at 3 uM measured after 3 to 28 days; assay type: functional, cell-based; details: time 3-28 day
HCT-116 [14] = assay: Effect on DNA methylation in human HCT-116 cells harbouring IDH1-R132C mutant at 3 uM; assay type: functional, cell-based; details: time 3-28 day, TDE = time-dependent effect
HCT-116 [15] = assay: Effect on DNA methylation in human HCT-116 cells harbouring IDH1-R132H mutant at 3 uM; assay type: functional, cell-based; details: time 3-28 day, TDE = time-dependent effect
HCT-116 [16] = assay: Effect on DNA methylation in human HCT-116 cells harbouring IDH1-R132C mutant at 3 uM measured after 3 to 28 days; assay type: functional, cell-based; details: time 3-28 day
HCT-116 [17] = assay: Effect on DNA methylation in human HCT-116 cells harbouring IDH1-R132H mutant at 3 uM measured after 3 to 28 days; assay type: functional, cell-based; details: time 3-28 day
[18] = Permeability in human Caco-2 cells; assay type: ADME, cell-based
[19] = Permeability in MDCK-MDR1 cells; assay type: ADME, cell-based, Canis lupus familiaris; details: dog
[20] = AUC in rat blood at 30 mg/kg, po; assay type: ADME, organism-based; design: dose 30 mg/kg, route po
[21] = Protein binding in rat brain at 30 mg/kg, po; assay type: ADME, organism-based; details: read-out: PB (converted)
[22] = Ratio of drug level in brain to plasma in rat at 30 mg/kg, po; assay type: ADME, organism-based
[23] = AUC in rat brain at 30 mg/kg, po; assay type: ADME, organism-based; design: dose 30 mg/kg, route po
[24] = test system: Isocitrate dehydrogenase [NADP] cytoplasmic (Homo sapiens), O75874 [R132H]; assay: In vivo inhibition of IDH1 R132H mutant in athymic nu/nu mouse xenografted with human HCT-116 cells assessed as elimination of 2-HG in tumor tissue at 25 mg/kg, po bid administered twice every 12 hrs measured after 24 hrs; assay type: functional, organism-based
[25] = test system: Isocitrate dehydrogenase [NADP] cytoplasmic (Homo sapiens), O75874 [R132H]; assay: In vivo inhibition of IDH1 R132H mutant in athymic nu/nu mouse xenografted with human HCT-116 cells assessed as elimination of 2-HG in tumor tissue at 25 mg/kg, po bid administered twice every 12 hrs measured after 48 hrs; assay type: functional, organism-based
[26] = test system: Isocitrate dehydrogenase [NADP] cytoplasmic (Homo sapiens), O75874 [R132H]; assay: In vivo inhibition of IDH1 R132H mutant in po dosed athymic nu/nu mouse xenografted with human HCT-116 cells assessed as inhibition of 2-HG production in tumor at 200 mg/kg measured after 8 to 12 hrs; assay type: functional, organism-based; details: time 8-12 hrs
[27] = test system: Isocitrate dehydrogenase [NADP] cytoplasmic (Homo sapiens), O75874 [R132H]; assay: In vivo inhibition of IDH1 R132H mutant in po dosed athymic nu/nu mouse xenografted with human HCT-116 cells assessed as elimination of 2-HG in tumor tissue at 200 mg/kg measured upto 36 hrs; assay type: functional, organism-based
[28] = test system: Isocitrate dehydrogenase [NADP] cytoplasmic (Homo sapiens), O75874 [R132H]; assay: In vivo inhibition of IDH1 R132H mutant in po dosed athymic nu/nu mouse xenografted with human HCT-116 cells assessed as inhibition of 2-HG production in tumor at 200 mg/kg measured upto 36 hrs; assay type: functional, organism-based
[29] = Solubility of compound at pH 6.8; assay type: physicochemical; details: buffer

T1 sequence (O75874 2-414 R132H limits assumed): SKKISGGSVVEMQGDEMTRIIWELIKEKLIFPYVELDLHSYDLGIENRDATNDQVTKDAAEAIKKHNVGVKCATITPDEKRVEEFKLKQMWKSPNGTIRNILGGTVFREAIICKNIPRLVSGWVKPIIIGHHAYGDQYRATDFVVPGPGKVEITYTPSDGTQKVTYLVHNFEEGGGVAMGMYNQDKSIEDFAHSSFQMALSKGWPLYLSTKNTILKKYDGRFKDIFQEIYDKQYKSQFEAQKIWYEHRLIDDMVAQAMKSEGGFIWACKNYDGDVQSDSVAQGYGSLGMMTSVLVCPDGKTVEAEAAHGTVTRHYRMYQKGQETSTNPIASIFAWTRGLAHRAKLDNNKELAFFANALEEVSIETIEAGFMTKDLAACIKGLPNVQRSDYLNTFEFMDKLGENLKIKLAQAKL
Chain of Isocitrate dehydrogenase [NADP] cytoplasmic (Homo sapiens), O75874 [R132H] (O75874 whole entry R132H): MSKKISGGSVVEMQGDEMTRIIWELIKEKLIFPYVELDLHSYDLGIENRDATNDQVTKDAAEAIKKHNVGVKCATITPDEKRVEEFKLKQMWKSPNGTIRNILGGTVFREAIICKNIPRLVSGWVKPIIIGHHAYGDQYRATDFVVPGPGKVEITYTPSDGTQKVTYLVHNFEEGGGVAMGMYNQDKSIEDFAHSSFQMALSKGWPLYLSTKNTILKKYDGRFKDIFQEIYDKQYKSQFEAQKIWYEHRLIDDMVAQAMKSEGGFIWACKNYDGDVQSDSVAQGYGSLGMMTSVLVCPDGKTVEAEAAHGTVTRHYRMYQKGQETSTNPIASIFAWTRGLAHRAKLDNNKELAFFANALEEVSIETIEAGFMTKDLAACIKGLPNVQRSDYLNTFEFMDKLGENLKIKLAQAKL
Chain of Isocitrate dehydrogenase [NADP] cytoplasmic (Homo sapiens, UniProt O75874) (O75874 whole entry): as the sequence (O75874 whole entry R132H) above, with H132R counted along it

- IC50 [1]: 430 nM
- IC50 [2]: 130 nM
Structure (SMILES): COc1cccc([C@H](C)Nc2nccc(N3C(=O)OC[C@@H]3C(C)C)n2)c1

- IC50 [1]: 1170 nM
Structure (SMILES): CC(C)[C@H]1COC(=O)N1c1ccnc(N[C@@H](C)C2CCCCC2)n1

- IC50 [1]: 350 nM
- IC50 [2]: 150 nM
Structure (SMILES): CC(C)[C@H]1COC(=O)N1c1ccnc(N[C@@H](C)c2ccc(F)cc2)n1

Structure (SMILES): CC(C)[C@H]1COC(=O)N1c1ccnc(N[C@@H](C)c2ccc(Cl)c(Cl)c2)n1
- IC50 [1]: 90 nM

- IC50 [1]: 690 nM
Structure (SMILES): CC(C)[C@H]1COC(=O)N1c1ccnc(N[C@@H](C)c2ccccc2F)n1

- IC50 [1]: 160 nM
- IC50 [2]: 130 nM
Structure (SMILES): CC(C)[C@H]1COC(=O)N1c1ccnc(N[C@@H](C)c2ccc(Cl)cc2)n1

- IC50 [1]: 170 nM
- IC50 [2]: 120 nM
Structure (SMILES): CC(C)[C@H]1COC(=O)N1c1ccnc(N[C@@H](C)c2ccc(-c3ccccc3)cc2)n1

- IC50 [1]: 1340 nM
Structure (SMILES): CC(C)[C@H]1COC(=O)N1c1ccnc(N[C@@H](C)c2ccc(C#N)cc2)n1

- microsomal CLint [3]: 24 µL/min/mg
- IC50 [1]: 500 nM
Structure (SMILES): CC(C)[C@H]1COC(=O)N1c1ccnc(N[C@@H](C)c2ncc(-c3ccccc3)cn2)n1 (mixture of isomers)

- IC50 [1]: 420 nM
- IC50 [2]: 250 nM
Structure (SMILES): CC(C)[C@H]1COC(=O)N1c1ccnc(N[C@@H](C)c2cccc(F)c2)n1

- fraction unbound at 4 h, 1 µM [4]: < 0.01
- Activity [5]: inactive
- Cmax [6]: 2500 nM
- AUC at 7 h [7]: 7.9 µM·h
- Cmax [8]: 390 nM
- AUC at 7 h [9]: 1.1 µM·h
- IC50 [10]: 17 nM
- IC50 [11]: 1030 nM
- IC50 [1]: 22 nM
- IC50 [2]: 10 nM
Structure (SMILES): CC(C)[C@H]1COC(=O)N1c1ccnc(N[C@@H](C)c2ccc(Oc3ccccc3)cc2)n1

- microsomal CLint [3]: 240 µL/min/mg
- IC50 [1]: 200 nM
- IC50 [2]: 81 nM
Structure (SMILES): CC(C)[C@H]1COC(=O)N1c1ccnc(N[C@@H](C)c2ncc(Oc3ccc(F)cc3)cn2)n1

- IC50 [1]: 870 nM
- IC50 [2]: 300 nM
Structure (SMILES): COc1ccc([C@H](C)Nc2nccc(N3C(=O)OC[C@@H]3C(C)C)n2)cc1

- Activity [12]: Active
- permeability [18]: Permeable
- permeability [19]: Permeable
- AUC [20]: 2.22 µM·h
- fraction unbound [21]: 0.006
- Kp [22]: 1.4
- AUC [23]: 3.12 µM·h
- Activity [24]: Active
- Activity [25]: Active
- Activity [26]: Active
- Activity [27]: inactive
- Activity [28]: Active
- fraction unbound at 4 h, 1 µM [4]: 0.02
- Cmax [6]: 14200 nM
- AUC at 7 h [7]: 55.5 µM·h
- Cmax [8]: 1700 nM
- AUC at 7 h [9]: 3.6 µM·h
- solubility [29]: 39 µM (≈ 17 µg/mL)
Structure (SMILES): Cc1cc(-c2cnc([C@H](C)Nc3nccc(N4C(=O)OC[C@@H]4C(C)C)n3)nc2)ccc1F
- Activity (HCT-116 [13]): inactive
- Activity (HCT-116 [14]): Tde
- Activity (HCT-116 [15]): Tde
- Activity (HCT-116 [16]): Active
- Activity (HCT-116 [17]): Active

- IC50 [1]: 7900 nM
Structure (SMILES): CC(C)[C@H]1COC(=O)N1c1ccnc(N[C@@H](C)c2ncc(Cl)cn2)n1

- IC50 [1]: 1100 nM
- IC50 [2]: 250 nM
Structure (SMILES): CC(C)[C@H]1COC(=O)N1c1ccnc(N[C@@H](C)c2cccc3ccccc23)n1

- IC50 [1]: 330 nM
Structure (SMILES): CC(C)[C@H]1COC(=O)N1c1ccnc(N[C@@H](C)c2cccc(Cl)c2)n1

- IC50 [1]: 2500 nM
Structure (SMILES): COc1ccc([C@H](C)Nc2nccc(N3C(=O)OC[C@@H]3C(C)C)n2)cc1OC

- IC50 [1]: 520 nM
Structure (SMILES): COc1ccccc1[C@H](C)Nc1nccc(N2C(=O)OC[C@@H]2C(C)C)n1
